In publication PMC9699193, “Activation of a Sweet Taste Receptor by Oleanane-Type Glycosides from Wisteria sinensis” (Molecules, 2022):
Where two headings read alike, the source gives them in different places.

Biological target: T1, TAS1R2/TAS1R3 sweet taste receptor (Homo sapiens, UniProt Q7RTX0+Q8TE23)
T1 construct: with TAS1R3
T1 sequence (Q8TE23 20-839): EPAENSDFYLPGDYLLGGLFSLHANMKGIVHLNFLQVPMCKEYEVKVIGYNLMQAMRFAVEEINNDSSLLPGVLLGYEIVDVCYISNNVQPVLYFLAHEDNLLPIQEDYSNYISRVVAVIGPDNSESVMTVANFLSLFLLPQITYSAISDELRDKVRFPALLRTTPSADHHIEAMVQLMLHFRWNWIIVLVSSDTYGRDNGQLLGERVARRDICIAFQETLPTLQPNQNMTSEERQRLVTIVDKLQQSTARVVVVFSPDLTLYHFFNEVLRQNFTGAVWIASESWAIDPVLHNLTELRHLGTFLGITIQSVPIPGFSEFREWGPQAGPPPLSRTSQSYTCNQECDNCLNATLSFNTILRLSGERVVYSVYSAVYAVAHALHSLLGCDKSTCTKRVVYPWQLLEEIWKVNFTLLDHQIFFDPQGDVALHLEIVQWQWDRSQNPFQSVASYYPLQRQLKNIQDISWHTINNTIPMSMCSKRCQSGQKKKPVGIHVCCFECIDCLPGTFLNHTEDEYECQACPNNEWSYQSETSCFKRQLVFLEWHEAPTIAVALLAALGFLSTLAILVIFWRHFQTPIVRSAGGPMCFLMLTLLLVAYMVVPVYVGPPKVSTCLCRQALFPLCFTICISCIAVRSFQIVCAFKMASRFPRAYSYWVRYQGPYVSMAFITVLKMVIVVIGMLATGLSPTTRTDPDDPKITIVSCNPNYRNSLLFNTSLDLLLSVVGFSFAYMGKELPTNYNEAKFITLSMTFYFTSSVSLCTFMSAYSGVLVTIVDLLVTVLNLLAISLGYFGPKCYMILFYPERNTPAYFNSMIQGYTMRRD
T1 sequence (Q7RTX0 21-852): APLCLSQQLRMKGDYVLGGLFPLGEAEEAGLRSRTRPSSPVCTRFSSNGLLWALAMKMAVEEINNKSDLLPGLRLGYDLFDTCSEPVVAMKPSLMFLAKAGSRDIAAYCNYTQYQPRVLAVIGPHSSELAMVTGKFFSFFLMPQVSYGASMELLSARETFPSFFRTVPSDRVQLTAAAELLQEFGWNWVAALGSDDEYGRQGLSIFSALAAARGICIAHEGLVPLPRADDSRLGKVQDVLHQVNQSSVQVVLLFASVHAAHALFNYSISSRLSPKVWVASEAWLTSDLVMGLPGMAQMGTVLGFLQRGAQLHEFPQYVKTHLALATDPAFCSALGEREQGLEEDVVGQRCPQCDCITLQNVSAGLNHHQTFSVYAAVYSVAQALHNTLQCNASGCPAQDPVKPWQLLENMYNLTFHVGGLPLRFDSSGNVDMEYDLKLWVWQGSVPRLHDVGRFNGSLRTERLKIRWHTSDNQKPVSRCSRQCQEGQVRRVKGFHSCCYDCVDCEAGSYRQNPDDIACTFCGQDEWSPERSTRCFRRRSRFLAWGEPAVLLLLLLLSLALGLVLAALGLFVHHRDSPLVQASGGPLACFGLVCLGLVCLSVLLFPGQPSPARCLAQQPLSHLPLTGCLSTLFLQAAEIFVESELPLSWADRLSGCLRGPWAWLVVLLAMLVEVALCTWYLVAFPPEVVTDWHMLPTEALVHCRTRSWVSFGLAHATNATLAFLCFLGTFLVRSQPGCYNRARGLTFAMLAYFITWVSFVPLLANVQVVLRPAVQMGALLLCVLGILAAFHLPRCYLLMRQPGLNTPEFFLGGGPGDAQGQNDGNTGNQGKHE
Experiment: GCaMP6S calcium imaging in HEK293T-Gα[…]gust44 cells expressing TAS1R2/TAS1R3, mock-corrected
Type: cell-based

Row | EC50 (read-out: EC50 (converted)) | SMILES | EC50
1 | – | C[C@]1(CO)CC(=O)[C@]2(C)CC[C@]3(C)C(=CCC4[C@@]5(C)CC[C@H](OC6O[C@H](C(=O)O)[C@@H](O)[C@H](O)[C@H]6O[C@@H]6OC[C@@H](O)[C@H](O)[C@H]6O)[C@](C)(CO)C5CC[C@]43C)C2C1 (stereo partly drawn) [compound 2, 3-O-β-D-xylopyranosyl-(1→2)-β-D-glucuronopyranosylwistariasapogenol A] | 35.9 µM
2 | – | C[C@@H]1O[C@@H](O[C@H]2[C@H](O[C@H]3C(O[C@H]4CC[C@@]5(C)C(CC[C@]6(C)C5CC=C5C7C[C@@](C)(CO)CC(=O)[C@]7(C)CC[C@]56C)[C@@]4(C)CO)O[C@H](C(=O)O)[C@@H](O)[C@@H]3O)OC[C@@H](O)[C@@H]2O)[C@H](O)[C@H](O)[C@H]1O (stereo partly drawn) [compound 3, 3-O-α-L-rhamnopyranosyl-(1→2)-β-D-xylopyranosyl-(1→2)-β-D-glucuronopyranosywistariasapogenol A] | 31.3 µM
3 | – | CC1(C)[C@@H](O[C@H]2O[C@H](C(=O)O)[C@@H](O)[C@H](O)[C@H]2O[C@@H]2O[C@H](C(=O)O)[C@@H](O)[C@H](O)[C@H]2O)CC[C@]2(C)[C@H]3C(=O)C=C4[C@@H]5C[C@@](C)(C(=O)O)CC[C@]5(C)CC[C@@]4(C)[C@]3(C)CC[C@@H]12 [glycyrrhizin] | 41.3 µM
4 | 40.2 µM | OC[C@H]1O[C@H](O[C@]2(CCl)O[C@H](CCl)[C@@H](O)[C@@H]2O)[C@H](O)[C@@H](O)[C@H]1Cl [sucralose, reference compound] | –
